According to PMC10044120, “Potent and selective covalent inhibition of the papain-like protease from SARS-CoV-2” (Nature Communications, 2023):
Values joined by “and” are separate entries in the source; they are usually repeats but may differ in a detail not shown here. Equal entries are not always repeated. Where two headings read alike, the source gives them in different places.

What was measured:
PLpro from SARS-CoV-2 [1] = target: T1, PLpro from SARS-CoV-2 (Severe acute respiratory syndrome coronavirus 2, UniProt P0DTD1); assay: biochemical; format: biochemical; details: for remaining activity at 0.06 µM: inhibitor 0.06 uM; for remaining activity at 0.2 µM: inhibitor 0.20 uM; for IC50: after 30-min incubation
PLpro from SARS-CoV-2 [2] = target: T1, PLpro from SARS-CoV-2; assay: biochemical; format: biochemical; design: mean (kobs plot, Supplementary Figure 6 II): unit: min^-1
PLpro = PLpro (Severe acute respiratory syndrome coronavirus 2, UniProt P0DTD1); assay: Intact protein ESI-MS to assess covalent adduct formation; format: binding, SARS-CoV-2; design: unit not given here
[3] = system: SARS-CoV-2 isolate USA-WA1/2020; details: read-out: cytopathic effect, % cell viability, duplicate wells
Vero E6 cells = details: African green monkey, 48 h
in vitro = details: African green monkey, cytotoxicity, %cell viability
[4] = system: SARS-CoV-2 isolate USA-WA1/2020; assay: microbe, parasite or virus in culture; details: for inhibition at 2.08 µM: Severe acute respiratory syndrome coronavirus 2, Vero C1008, read-out: cytopathic effect, % cell viability, [inhibitor] 2.08 uM
[5] = system: viral replication in Vero E6 cells; details: cited from earlier work
[6] = Metabolic stability in rat liver microsomes; details: Sprague-Dawley
[7] = Metabolic stability in rat liver S9 fraction; details: Sprague-Dawley
[8] = Metabolic stability in human liver microsomes
[9] = Metabolic stability in mouse liver microsomes; details: CD-1, mouse
[10] = Metabolic stability in human liver S9 fraction
[11] = Metabolic stability in mouse liver S9 fraction; details: CD-1, mouse

`COC(=O)/C=C/C(=O)NNC(=O)CCc1ccc(NC(C)=O)cc1C(=O)N[C@H](C)c1cccc2ccccc12` [Compound 8, methyl-(R,E)-4-(2-(3-(4-acetamido-2-((1-(naphthalen-1-yl)ethyl)carbamoyl)phenyl)propanoyl)hydrazineyl)-4-oxobut-2-enoate] gave a remaining activity at 0.06 µM (PLpro from SARS-CoV-2 [1]; 0.5 h) of 89.5%, a remaining activity at 0.2 µM (PLpro from SARS-CoV-2 [1]; 0.5 h) of 57.8% and an IC50 (PLpro from SARS-CoV-2 [1]) of 0.23 µM. For the same molecule, the kinact/KI (PLpro from SARS-CoV-2 [2]) was 9000 M⁻¹ s⁻¹, the remaining activity at 0.1 µM (PLpro from SARS-CoV-2 [2]; 5 min, read-out: PLpro activity after preincubation, inhibitor 0.1 uM, preincubation 5 min) was 79.5% and the remaining activity at 0.1 µM (PLpro from SARS-CoV-2 [2]; 10 min, read-out: PLpro activity after preincubation, inhibitor 0.1 uM, preincubation 10 min) was 71.5%. It also gave a remaining activity at 0.1 µM (PLpro from SARS-CoV-2 [2]; 0.5 h, read-out: PLpro activity after preincubation, inhibitor 0.1 uM, preincubation 30 min) of 66.2%, a remaining activity at 0.1 µM (PLpro from SARS-CoV-2 [2]; 1 h, read-out: PLpro activity after preincubation, inhibitor 0.1 uM, preincubation 60 min) of 64.4% and a remaining activity at 0.2 µM (PLpro from SARS-CoV-2 [2]; 1 h, read-out: PLpro activity after preincubation, inhibitor 0.2 uM, preincubation 60 min) of 12.6%. For the same molecule, the remaining activity at 0.1 µM (PLpro from SARS-CoV-2 [2]; […], read-out: PLpro activity after preincubation, inhibitor 0.1 uM, preincubation 15 min) was 66.3%, the remaining activity at 0.1 µM (PLpro from SARS-CoV-2 [2]; […], read-out: PLpro activity after preincubation, inhibitor 0.1 uM, preincubation 45 min) was 72.5% and the remaining activity at 0.1 µM (PLpro from SARS-CoV-2 [2]; […], read-out: PLpro activity after preincubation, inhibitor 0.1 uM, preincubation 90 min) was 44.6%. For the same molecule, the “Time dep. (time-dependent inhibition)” value (PLpro from SARS-CoV-2 [2]; fluorogenic peptide assay, varied preincubation time) was “Yes”, the “mean (kobs plot, Supplementary Figure 6 II)” value (PLpro from SARS-CoV-2 [2]; inhibitor 0.10 uM) was 0.0091 and the “mean (kobs plot, Supplementary Figure 6 II)” value (PLpro from SARS-CoV-2 [2]; inhibitor 0.20 uM) was 0.0652. The Measured adduct mass (PLpro) was 531, the inhibition ([3]; [inhibitor] 2.08 uM, 2.08 µM) was 0.9% and the inhibition ([3]; [inhibitor] 8.33 uM, 8.33 µM) was 2.82%. The “cytotoxicity, %cell viability” value (Vero E6 cells; 2.08 µM) was 78.830%, the “cytotoxicity, %cell viability” value (Vero E6 cells; 8.33 µM) was 82.620% and the “cytotoxicity, %cell viability” value (Vero E6 cells; 16.67 µM) was 76.260%. The “cytotoxicity, %cell viability” value (Vero E6 cells; 33.33 µM) was 75.370%, the viability at 48 h, 2.08 µM (in vitro) was 83.7% and the viability at 48 h, 8.33 µM (in vitro) was 87.2%. The viability at 48 h, 16.67 µM (in vitro) was 82.6%, the viability at 48 h, 33.33 µM (in vitro) was 75.6% and the inhibition at 2.08 µM ([4]; duplicate wells) was 1.22%. For the same molecule, the inhibition at 8.33 µM ([4]; Severe acute respiratory syndrome coronavirus 2, Vero C1008, read-out: cytopathic effect, % cell viability, [inhibitor] 8.33 uM, duplicate wells) was 4.63%.
`Cc1ccccc1C(=O)N[C@H](C)c1cccc2ccccc12` [Compound 14, (R)-2-methyl-N-(1-(naphthalen-1-yl)ethyl)benzamide] showed a remaining activity at 0.02 µM (PLpro from SARS-CoV-2 [1]; 0.5 h, inhibitor 0.02 uM) of 96.3%, a remaining activity at 0.06 µM (PLpro from SARS-CoV-2 [1]; 0.5 h) of 94.2% and a remaining activity at 0.2 µM (PLpro from SARS-CoV-2 [1]; 0.5 h) of 103%. For the same molecule, the remaining activity at 2.01 µM (PLpro from SARS-CoV-2 [1]; 0.5 h, inhibitor 2.01 uM) was 90.5%, the remaining activity at 6.34 µM (PLpro from SARS-CoV-2 [1]; 0.5 h, inhibitor 6.34 uM) was 77.4% and the remaining activity at 20 µM (PLpro from SARS-CoV-2 [1]; 0.5 h, inhibitor 20.00 uM) was 56.2%. The remaining activity at 200 µM (PLpro from SARS-CoV-2 [1]; 0.5 h, inhibitor 200.00 uM) was 40.8%, the IC50 (PLpro from SARS-CoV-2 [1]) was 100 µM and the inhibition ([3]; [inhibitor] 2.08 uM, 2.08 µM) was 7.39%. The inhibition ([3]; [inhibitor] 16.65 uM, 16.65 µM) was 5.25%, the “cytotoxicity, %cell viability” value (Vero E6 cells; 2.08 µM) was 96.55% and the “cytotoxicity, %cell viability” value (Vero E6 cells; 8.33 µM) was 99.10%. The “cytotoxicity, %cell viability” value (Vero E6 cells; 16.65 µM) was 92.38%, the EC50 [5] was 10 µM and the viability at 48 h, 2.08 µM (in vitro) was 100%. For the same molecule, the viability at 48 h, 8.33 µM (in vitro) was 95.2%, the viability at 48 h, 16.65 µM (in vitro) was 95.7% and the inhibition at […] ([4]; Severe acute respiratory syndrome coronavirus 2, Vero C1008, read-out: cytopathic effect, % cell viability) was 7.92% and 10.7%. For the same molecule, the inhibition at 2.08 µM ([4]; duplicate wells) was 11.3%, the inhibition at 16.65 µM ([4]; Severe acute respiratory syndrome coronavirus 2, Vero C1008, read-out: cytopathic effect, % cell viability, [inhibitor] 16.65 uM, duplicate wells) was 7.05% and the half-life [6] was 21 min. It also gave a microsomal CLint [6] of 330 µL/min/mg, a half-life [7] of 17 min and a microsomal CLint [7] of 138 µL/min/mg. The half-life [8] was 41 min, the microsomal CLint [8] was 171 µL/min/mg and the half-life [9] was 16 min. The microsomal CLint [9] was 435 µL/min/mg, the half-life [10] was over 60 min and the microsomal CLint [10] was under 38.5 µL/min/mg. The half-life [11] was 18 min and the microsomal CLint [11] was 128 µL/min/mg.
